The values below come from article PMC6270398, “Synthesis and Promising in Vitro Antiproliferative Activity of Sulfones of a 5-Nitrothiazole Series” (Molecules, 2012).

One data set deals with CHO cells. Nature of the data set: In vitro cytotoxicity evaluation on CHO cell line (MTT method). In kind it is cell-based. Conditions: for CC50: Cricetulus griseus, 24 h incubation with product, mean ± SD of three independent experiments, read-out: Cancer cell toxicity CHO CC50. As to the method: (§1) The antiproliferative activity of the synthesized compounds was evaluated against two different cancer cell lines, CHO and HepG2, employing the MTT method and doxorubicin as a reference drug. The cytotoxic activity in vitro was expressed as CC50 (µM), the concentration of compound that inhibits proliferation of cells by 50% as compared to untreated cells.
(§2) CHO and HepG2 cell lines were maintained at 37 °C, 6% CO2, 14% O2, 80% N2, with 90% humidity in RPMI supplemented with 10% fœtal bovine serum, 1% L-glutamine (200 mM) and penicillin (100 U/mL) / streptomycin (100 µg/mL) (complete RPMI medium).
(§3) In vitro cytotoxicity evaluation on CHO and HepG2 cell lines was performed according to the method described by Mosmann with slight modifications. Briefly, 5 × 10^3 cells in 100 µL of culture medium (RPMI + […]) were inoculated into each well of 96-well plates and incubated at 37 °C in a humidified 6% CO2, 14% O2, 80% N2 atmosphere. After 24 h incubation, 100 µL of medium with various product concentrations was added and the plates were incubated from 24 h (CHO) to 72 h (HepG2). Duplicate assays were performed for each sample. At the end of the treatment and incubation, the medium was aspirated from the wells and 10 µL yellow MTT (3-(4,5-dimethyl-2-thiazolyl)-2,5-diphenyl-2H-tetrazolium bromide) solution (5 mg MTT/mL in PBS) was added to each well with 100 µL of medium without fœtal bovine serum. Cells were incubated for 2 h at 37 °C to allow MTT […] by mitochondrial dehydrogenase in the viable cells. After 2 h, the MTT solution was aspirated and DMSO (100 µL) was added to each well to dissolve the resulting blue formazan crystals. Plates were then shaken vigorously (300 rpm) for a few minutes. The absorbance was measured at 570 nm with 630 nm as reference wavelength, using a microplate spectrophotometer. DMSO was used as blank and doxorubicin as positive control.
(§4) Cell viability was calculated as percentage of control (cells incubated without compound). The 50% cytotoxic concentrations (CHO CC50 and HepG2 CC50) were determined by non-linear regression analysis processed on dose-response curves, using the Table Curve software 2D v.5.0. CC50 values represent the mean value calculated from three independent experiments.

For another data set, the system named is HepG2 cells. Description: In vitro cytotoxicity evaluation on HepG2 cell line (MTT method). In kind it is cell-based, human. As to conditions: for CC50: Homo sapiens, 72 h incubation with product, mean ± SD of three independent experiments, read-out: Cancer cell toxicity HepG2 CC50; for CC50 / antiproliferative activity on HepG2 cells (in words): HepG2 cell line, MTT; for antiproliferative effect times higher toward the HepG2 than toward the CHO cell line: ratio CHO CC50 / HepG2 CC50. On the procedure:
as §1, §2, §3, §4

The compound `Cc1nc(CS(=O)(=O)c2cccc(F)c2)c([N+](=O)[O-])s1` [2f, 4-[(3-Fluorophenylsulfonyl)methyl]-2-methyl-5-nitro-1,3-thiazole] gave a melting point of 154 °C. Besides, in the data set on CHO cells, the half-maximal cytotoxic concentration (CC50) amounted to 321 µM. In addition, the half-maximal cytotoxic concentration (CC50) in the data set with HepG2 cells stood at 23.6 µM.
As for `Cc1ccc(S(=O)(=O)Cc2nc(C)sc2[N+](=O)[O-])cc1` [2b, 2-Methyl-5-nitro-4-(tosylmethyl)-1,3-thiazole], the melting point was determined as 179 °C. Also, in the data set on CHO cells, the CC50 came out at 237 µM. Moreover, in the data set on HepG2 cells, the CC50 turned out to be 7.7 µM and the “antiproliferative effect times higher toward the HepG2 than toward the CHO cell line” value is listed as 31 times.
In turn, `Cc1nc(C(Cl)(Cl)S(=O)(=O)c2ccc(F)cc2)c([N+](=O)[O-])s1` [3e, 4-[Dichloro(4-fluorophenylsulfonyl)methyl]-2-methyl-5-nitro-1,3-thiazole] displayed a melting point of 145 °C. For the same compound, in the data set with CHO cells, the CC50 was 1.3 µM. In the data set on HepG2 cells, the CC50 is 1.2 µM.
For the compound `Cc1nc(CS(=O)(=O)c2ccc(Br)cc2)c([N+](=O)[O-])s1` [2d, 4-[(4-Bromophenylsulfonyl)methyl]-2-methyl-5-nitro-1,3-thiazole], the half-maximal cytotoxic concentration (CC50) in the data set on CHO cells is above 500 µM. In addition, in the data set on HepG2 cells, the CC50 was found to be 11.7 µM and the “antiproliferative effect times higher toward the HepG2 than toward the CHO cell line” value is recorded as 43 times.
In the case of `COc1ccc(S(=O)(=O)Cc2nc(C)sc2[N+](=O)[O-])cc1` [2h, 4-[(4-Methoxyphenylsulfonyl)methyl]-2-methyl-5-nitro-1,3-thiazole], the CC50 with CHO cells was 137 µM; with HepG2 cells it was 20.6 µM.
`Cc1nc(C(Cl)(Cl)S(=O)(=O)c2ccc(Br)cc2)c([N+](=O)[O-])s1` [3d, 4-[(4-Bromophenylsulfonyl)dichloromethyl]-2-methyl-5-nitro-1,3-thiazole]: the melting point came out at 165 °C. In addition, the CC50 in the data set on CHO cells came out at 1.3 µM. Moreover, the CC50 in the data set with HepG2 cells was found to be 1.2 µM.
Consider `Cc1ccc(S(=O)(=O)C(Cl)(Cl)c2nc(C)sc2[N+](=O)[O-])cc1` [3b, 4-[Dichloro(tosyl)methyl]-2-methyl-5-nitro-1,3-thiazole], for which the CC50 in the data set with CHO cells turned out to be 1.2 µM; in the data set on HepG2 cells, 1 µM.
`Cc1nc(C(Cl)(Cl)S(=O)(=O)c2ccccc2)c([N+](=O)[O-])s1` [3a, 4-[Dichloro(phenylsulfonyl)methyl]-2-methyl-5-nitro-1,3-thiazole] yielded a melting point of 169 °C. Moreover, the CC50 in the data set with CHO cells turned out to be 2.5 µM. For the same compound, in the data set on HepG2 cells, the CC50 was 1.2 µM.
With `COc1cccc2c1C(=O)c1c(O)c3c(c(O)c1C2=O)C[C@@](O)(C(=O)CO)C[C@@H]3O[C@H]1C[C@H](N)[C@H](O)[C@H](C)O1` [Doxorubicin, reference compound], the values for the CC50 with CHO cells and in the data set with HepG2 cells were 0.6 µM and 0.2 µM, respectively.
With `Cc1nc(CS(=O)(=O)c2ccc(Br)s2)c([N+](=O)[O-])s1` [2k, 4-[(5-Bromothiophen-2-ylsulfonyl)methyl]-2-methyl-5-nitro-1,3-thiazole], the CC50 in the data set on CHO cells was 47.3 µM; in the data set on HepG2 cells, 13.8 µM.
`CCc1ccc(S(=O)(=O)Cc2nc(C)sc2[N+](=O)[O-])cc1` [2i, 4-[(4-Ethylphenylsulfonyl)methyl]-2-methyl-5-nitro-1,3-thiazole]: in the data set with CHO cells, the “antiproliferative activity on CHO cells (in words)” value is “no activity was observed” and the CC50 was above 500 µM. In the data set on HepG2 cells, the “antiproliferative activity on HepG2 cells (in words)” value was “no activity was observed” and the CC50 was 239 µM.
Turning to `Cc1nc(CS(C)(=O)=O)c([N+](=O)[O-])s1` [2j, 2-Methyl-4-(methylsulfonylmethyl)-5-nitro-1,3-thiazole], the melting point stood at 127 °C. In addition, in the data set on CHO cells, the “antiproliferative activity on CHO cells (in words)” value is given as “no activity was observed” and the CC50 was above 250 µM. Moreover, in the data set with HepG2 cells, the “antiproliferative activity on HepG2 cells (in words)” value was “no activity was observed” and the CC50 is above 250 µM.
The compound `Cc1nc(CS(=O)(=O)c2ccc3ccccc3c2)c([N+](=O)[O-])s1` [2l, 2-Methyl-4-[(naphtalen-2-ylsulfonyl)methyl]-5-nitro-1,3-thiazole] registered a melting point of 163 °C. In addition, in the data set on CHO cells, the CC50 was 106 µM. The CC50 in the data set on HepG2 cells worked out at 8.5 µM.
With `Cc1nc(CS(=O)(=O)c2ccccc2)c([N+](=O)[O-])s1` [2a, 2-methyl-5-nitro-4-phenylsulfonylmethyl-1,3-thiazole], the CC50 in the data set on CHO cells is 323 µM; in the data set on HepG2 cells, 24.6 µM.
As to `Cc1nc(CS(=O)(=O)c2ccc(Cl)cc2)c([N+](=O)[O-])s1` [2c, 4-[(4-Chlorophenylsulfonyl)methyl]-2-methyl-5-nitro-1,3-thiazole], the melting point was determined as 180 °C. In addition, the CC50 with CHO cells is above 62.5 µM. Also, the CC50 in the data set with HepG2 cells was 13.4 µM.
For `Cc1nc(CS(=O)(=O)c2cccc(C(F)(F)F)c2)c([N+](=O)[O-])s1` [2g, 2-Methyl-5-nitro-4-{[3-(trifluoromethyl)phenylsulfonyl]methyl}-1,3-thiazole], the melting point came out at 121 °C. In addition, the CC50 in the data set with CHO cells amounted to 139 µM. Further, the 50% cytotoxic concentration (CC50) in the data set on HepG2 cells stood at 25.6 µM.
For `Cc1nc(CS(=O)(=O)c2ccc(F)cc2)c([N+](=O)[O-])s1` [2e, 4-[(4-Fluorophenylsulfonyl)methyl]-2-methyl-5-nitro-1,3-thiazole], the 50% cytotoxic concentration (CC50) in the data set on CHO cells amounted to 229 µM; with HepG2 cells, 19.3 µM.
With `Cc1nc(C(Cl)(Cl)S(=O)(=O)c2ccc(Cl)cc2)c([N+](=O)[O-])s1` [3c, 4-[Dichloro(4-chlorophenylsulfonyl)methyl]-2-methyl-5-nitro-1,3-thiazole], the CC50 in the data set on CHO cells turned out to be 1.4 µM; in the data set with HepG2 cells, 1.1 µM.
